Read-outs that look alike come from different tables or passages of the source.
Columns and labels:
[1] = Pharmacokinetic oral gavage experiment in rats (serum spilanthol, one compartmental model); assay type: in vivo, Wistar rats; details: for half-life: 1.5 ml of 0.73 mg spilanthol/g dose solution, read-out: elimination half-life (converted)
Method: The Wistar rats were bred in Bharat Serum and Vaccines pvt. Ltd, Thane, India (registration number 103/99/CPCSEA) and kept for the experiments at C. U. Shah College of Pharmacy, SNDT Women’s University, Santacruz, Mumbai, India (registration number 39/99/CPCSEA). The half of the rats used in the experiment were female rats and the other half male rats. Rats of 7-8 weeks old, weighing 220 g, and fasted overnight were used for the experiment.
The pharmacokinetic oral gavage experiment was carried out at C. U. Shah College of Pharmacy, SNDT Women’s University, Santacruz, Mumbai, India. A spilanthol dose solution was prepared with the Spilanthes acmella (L.) L. extract (A.Vogel). 1.5 ml of a spilanthol dose solution of 0.73 mg spilanthol/g dose solution in 10:20:30:40 (w/w/w/w) ethanol:PG:vitamin E-TPGS:PEG400 was administered to the rats using a gavage needle made up of stainless steel (length 3 inches and 2.5 mm internal diameter). A blank dose solution was used as well, containing ethanol, PG, vitamin E-TPGS and PEG without spilanthol. For each dose solution, six rats were used of which three were females and three males. Blood was collected (1.5 ml) from the retro orbital vein at specified time points i.e. 1, 2, 3, 4, 6, and 8 h after oral administration of the dose solution. The collected blood samples were centrifuged using a Remi R-24 centrifuge. At the end of the study, the animals were sacrificed by CO2 inhalation. All samples were immediately frozen at -80 °C until bio-analysis. The elimination rate constant was calculated using a one compartmental model using GraphPad software (La Jolla, USA), using the following equation: Ct=C0×e^−ke×t , in which t is time (h), C0 the concentration of spilanthol at time t = 0 (ng/ml), C(t) the concentration of spilanthol at time t and ke the elimination rate constant (h^−1). The elimination half-life (h) is computed as ln(2)/ke.
60 μl of the serum samples, 60 μl of 4 % (V/V) aqueous H3PO4 solution and 30 μl of the IS solution were transferred into a 0.5 ml (LoBind Eppendorf) tube and vortexed. Interfering compounds were removed by solid phase extraction using a positive pressure-96 processor (Waters). […] After the loading step, the HLB Oasis® μelution plate was washed using 200 μl of 5 % MeOH in H2O followed by 200 μl of 20 % MeOH in H2O. Spilanthol was eluted using two times 25 μl ACN. To the eluate, 25 μl of a 80:20 (V/V) H2O:MeOH solution was added and analysed with a UPLC-MS^2 method, as further described.

[2] = Capillary depletion (distribution brain parenchyma versus capillaries); assay type: in vivo, ICR-CD-1 mice; details: female, ICR-CD-1, mouse, iv, 80 μg per mouse, mice, 10 min after i.v. injection
Method: To investigate the distribution of spilanthol in the parenchyma and capillaries of the brain, a capillary depletion experiment was performed. By means of this experiment, it is possible to distinguish the transport of spilanthol into the brain (represented by the parenchyma) and part of spilanthol which is trapped by the endothelial cells of the brain (represented by the capillaries). The method of Triguero et al., as modified by Gutierrez et al., was used. Briefly, after anesthetizing the mice intraperitoneally with 40 % (w/V) urethane solution (3 g/kg), 20 μl of the 4 mg/ml spilanthol dose solution was injected into the jugular vein. Blood was collected from the abdominal aorta ten min after injection and serum was obtained by centrifuging the blood at 10 000 g during 15 min at 21 °C. Immediately after blood collection, the skin of the mice’s chest is removed to clamp the aorta and the jugular veins are severed. Immediately after clamping the aorta, the brain is perfused manually with 20 ml of Lactated Ringer’s solution. […]
The distribution was calculated as follows: Fraction%=Mtissue/Mcapillaries+Mparenchyma×100 where Mtissue represents the amount of spilanthol in the capillaries, respectively parenchyma; Mcapillaries the amount of spilanthol in the capillaries and Mparenchyma the amount of spilanthol in the parenchyma.

[3] = system: blood-brain barrier; experiment: Blood-to-brain transport, in vivo multiple time regression (MTR) analysis; details: mice
Method: Female, Institute for Cancer Research, Caesarean Derived-1 (ICR-CD-1) mice (Harlan Laboratories, Venray, Netherlands) of age 7–10 weeks and weighing 29–32 g, were used during the BBB transport experiments.
An in vivo multiple time regression (MTR) analysis was performed to investigate if spilanthol was able to cross the BBB. A dose solution of spilanthol was prepared using the Spilanthes acmella (L.) L. extract (Robertet) with a final concentration of 4 mg/ml spilanthol dissolved in 7.0 % ethanol, 2.5 % dimethylacetamide, 0.6 % tween 80 (all w/w) diluted in lactated Ringer’s solution containing 1 % BSA. The ICR-CD-1 mice were anesthetized by intraperitoneal injection with a 40 % (w/V) urethane solution (3 g/kg) and the jugular internalis vein and carotid artery were isolated, 20 μl of the spilanthol dose solution was injected into the jugular vein. Blood was obtained from the carotid artery at regular time points after injection (1, 3, 5, 10, 12.5 and 15 min, with start and end in duplicate), and the mice were immediately thereafter decapitated. After sacrificing the mice, the brains were collected. The collected blood from the carotid artery was centrifuged at 10 000 g for 15 min at 21 °C, resulting in serum. […]

[4] = design: method as in PMID 24055064; details: source not stated; cited from earlier work

## C/C=C/C=C\CC/C=C/C(=O)NCC(C)C [spilanthol, deca-2E,6Z,8E-trienoic acid isobutylamide]
[1]; both sexes, Wistar, rat, serum, po, 0.73 mg, oral gavage of 1.5 ml of 0.73 mg spilanthol/g dose solution (A. Vogel extract), one compartmental model, read-out: elimination rate constant ke (converted)
  k el: 0.000167 s⁻¹
[1]; both sexes, Wistar, rat, serum, po, oral gavage (discussion, in brackets)
  half-life: 63 min
[1]; both sexes, Wistar, rat, serum, po, oral gavage, ln(2)/ke
  half-life: 67.8 min
[1]; rat serum, oral gavage of 1.5 ml of 0.73 mg spilanthol/g dose solution (A. Vogel extract), one compartmental model
  elimination rate constant ke: 0.61 h⁻¹
[2]; brain capillaries/serum, read-out: spilanthol in brain capillaries (brain/serum ratio)
  Kp at 10 min: 0.0024
[2]; brain parenchyma/serum, read-out: spilanthol in brain parenchyma (brain/serum ratio)
  Kp at 10 min: 0.138
[3]; i.v. spilanthol dose solution with ethanol, dimethylacetamide, tween 80
  toxicity during the experiment: no toxicity was observed
[3]; i.v., MTR
  exposure time at which brain/serum ratio curve reached a plateau-phase: about 10 min
[4]
  LogP: 3.39

Reference: publication PMC4907212, “Mucosal and blood-brain barrier transport kinetics of the plant N-alkylamide spilanthol using in vitro and in vivo models” (BMC Complementary and Alternative Medicine, 2016)
